pKi: −log10 of the molar value.
Assays:
[1] = tested on: HIV; test: Phase II randomized study atazanavir vs nelfinavir: anti-HIV activity (viral load); type: in vivo; settings: atazanavir 200, 400 or 500 mg once daily, monotherapy two weeks then with stavudine and didanosine; treatment-naive patients
Method: In a Phase II randomized study, the safety and anti-HIV activity of three once daily doses of atazanavir (200 mg, 400 mg and 500 mg) was compared with 750 mg of the protease inhibitor, nelfinavir dosed three times daily. Twenty-one patients received nelfinavir in combination with stavudine and didanosine, while atazanavir was administered both as monotherapy (for two weeks) and then in combination with stavudine and didanosine to 78 treatment-naive (no prior anti-HIV therapy) patients with HIV viral loads >2000 copies per milliliter (c/mL).

[2] = design: species or system human; settings: in vivo
Method: (§1) In another two-stage, randomized three-arm Phase II study, the antiviral activity and metabolic effects of atazanavir at two different doses (400 mg or 600 mg) was compared to ritonavir, each in combination with saquinavir over 48 weeks. The protease inhibitors were administered in combination with two nucleoside reverse transcriptase inhibitors selected from didanosine, stavudine, lamivudine or zidovudine. The selection of reverse transcriptase inhibitors (used in combination as didanosine+stavudine, stavudine+lamivudine, didanosine+zidovudine, or lamivudine+zidovudine) was based on the patient's phenotypic sensitivity and the physician's choice at the time of administration. The regimens were as follows: […]
(§2) atazanavir 400 mg QD+saquinavir 1200 mg QD+2 nucleoside reverse transcriptase inhibitors atazanavir 600 mg QD+saquinavir 1200 mg QD+2 nucleoside reverse transcriptase inhibitors ritonavir 400 mg BID+saquinavir 400 mg BID+2 nucleoside reverse transcriptase inhibitors Patients were anti-retroviral-experienced with a treatment history of receiving a minimum of 24 weeks of a protease inhibitor-containing or non-nucleoside reverse transcriptase inhibitor-containing combination regimen. Stage 1 was to randomize approximately 75 subjects to assess the safety and antiviral activity of the regimens. […]

[3] = tested on: HIV; test: Phase II three-arm study atazanavir vs ritonavir, each with saquinavir + 2 NRTIs: antiviral activity; type: in vivo; settings: atazanavir groups vs ritonavir
Method: as §1, §2

[4] = tested on: CYP3A; test: Inhibition of cytochrome P450 3A enzyme; type: biochemical
From the text: Similarly, appropriate dosing of other HIV protease inhibitors to be used in combination with atazanavir can be calculated.

[5] = human, in vivo
From the text: In clinical studies carried out on 98 HIV-positive patients who have taken atazanavir for one year, no increases in plasma LDL-cholesterol or triglycerides were observed. Thus, atazanavir is particularly useful in the treatment of HIV-positive patients who have elevated plasma LDL-cholesterol and/or triglyceride levels. It can be used as monotherapy or as part of a “cocktail” which would include other antiretroviral drugs such as reverse transcriptase inhibitors, non-nucleoside reverse transcriptase inhibitors, and other HIV protease inhibitors.

[6] = saquinavir dosed at 1200 mg TID; at steady-state; cited from earlier work

Question: Which “reductions in viral load compared to the nelfinavir-treated patients” value [1] does the source give for `COC(=O)N[C@H](C(=O)N[C@@H](Cc1ccccc1)[C@@H](O)CN(Cc1ccc(-c2ccccn2)cc1)NC(=O)[C@@H](NC(=O)OC)C(C)(C)C)C(C)(C)C` [atazanavir] here?
Answer: at least comparable

Question: And the “LDL-cholesterol elevation over baseline” value [2]?
Answer: not elevated

Question: And the “antiviral efficacy through week 12, compared to ritonavir” value [3]?
Answer: similar

Question: And the pKi [4]?
Answer: 5.62

Question: What about the “increases in plasma LDL-cholesterol” value [5] of the same compound?
Answer: no increases

Question: And the “increases in plasma triglycerides” value [5]?
Answer: no increases

Question: With `Cc1c(O)cccc1C(=O)N[C@@H](CSc1ccccc1)[C@H](O)CN1C[C@H]2CCCC[C@H]2C[C@H]1C(=O)NC(C)(C)C` [nelfinavir] as the compound, how does the “increase of the exposure of saquinavir” value [6] read?
Answer: 392%
